{
  "source": "ChEMBL document CHEMBL2203004",
  "about": "“New diterpene furanoids from the Antarctic lichen Huea sp” (Bioorg Med Chem Lett, 2012)",
  "key": {"[1]": {"target": "T1, Tyrosine-protein phosphatase non-receptor type 1 (Homo sapiens) (UniProt P18031)", "T1 sequence (whole entry)": "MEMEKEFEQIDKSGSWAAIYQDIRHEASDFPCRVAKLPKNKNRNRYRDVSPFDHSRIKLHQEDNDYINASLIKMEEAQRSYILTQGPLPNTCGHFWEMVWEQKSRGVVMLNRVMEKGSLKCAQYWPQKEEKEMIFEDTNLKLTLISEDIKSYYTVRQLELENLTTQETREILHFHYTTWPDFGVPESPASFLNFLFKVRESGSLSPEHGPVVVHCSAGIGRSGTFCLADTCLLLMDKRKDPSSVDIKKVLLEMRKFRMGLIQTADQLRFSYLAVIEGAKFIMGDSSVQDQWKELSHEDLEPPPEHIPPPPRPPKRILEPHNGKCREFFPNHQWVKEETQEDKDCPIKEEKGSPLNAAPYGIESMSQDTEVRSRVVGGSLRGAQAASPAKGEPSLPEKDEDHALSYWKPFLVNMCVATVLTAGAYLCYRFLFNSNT", "assay": "Noncompetitive inhibition of human recombinant PTP1B using p-nitrophenyl phosphate as substrate at 5.57 to 14.87 uM after 30 mins by Lineweaver-Burk plot analysis"}, "[2]": {"target": "T1, Tyrosine-protein phosphatase non-receptor type 1 (Homo sapiens)", "assay": "(§1) Inhibition of human recombinant PTP1B using p-nitrophenyl phosphate as substrate after 30 mins by spectrophotometric analysis"}, "[3]": {"target": "T2, Tyrosine-protein phosphatase non-receptor type 1 (Homo sapiens, UniProt P18031)", "T2 sequence (P18031 whole entry)": "T1 sequence (whole entry)", "assay": "as §1"}},
  "note": "The source made the active and inactive calls. The rule behind the calls is not given here.",
  "data": [
    {"smiles": "C=CC(C)(O)C/C=C/[C@@]1(C)CC[C@@H](C(C)(O)CC(=O)C=C(C)C)O1", "note": "(relative stereo)", "values": [
      {"measurement": "inhibition", "setting": "[1]", "value": "Active"},
      {"measurement": "inhibition", "setting": "[2]", "value": "Dose-dependent effect"},
      {"measurement": "IC50", "setting": "[3]", "value": 13.9, "unit": "µM"}
    ]}
  ]
}
